Experimental data taken from patent US20110306631A1, “TRIPLE SUBSTITUTED PHENANTHROLINE DERIVATIVES FOR THE TREATMENT OF NEURODEGENERATIVE OR HAEMATOLOGICAL DISEASES OR CONDITIONS, OR CANCER” (NOSCIRA, S.A., priority 2008, published 2011).

Key:
[1] = system: Aβ (1-40) secretion, CHO7W (stably transfected with human APP751 wt cDNA); test: Inhibition of Aβ(1-40) secretion (ELISA of cellular supernatants); format: cell-based; conditions: CHO7W cells, Aβ(1-40) in supernatants
Text: To quantitate Aβ secretion ELISA-based method was used. The assay consists in detection of antigen by selective monoclonal anti-Aβ-antibodies at two different epitopes forming a “Sandwich-complex”, that is detected by colorimetric measure due to the binding of a secondary antibody conjugated with peroxidase that catalyses the conversion of a substrate or chromogen, TMB, into a coloured product, directly proportional to the peptide quantity in the sample. The Aβ production has been analyzed by ELISA, using a colorimetric commercial kit: H-amuloid b-30 ELISA (The Genetics Company).
Aβ (1-40) were quantified from cellular supernatants. An APP-transfected cell line has been employed for the experiments: CHO7W (stably transfected with human APP751 wt cDNA). The cells were grown in a culture medium consisting of DMEM supplemented with 2% Fetal bovine serum, 1% penicillin-streptomycin, 1% L-glutamine and 200 μg/ml G418. Cells are seeded in 96-well culture microplate, at 5000 cells/well and treatment with different compounds at different concentrations is performed 24 hour after seeding.

[2] = system: SH-SY5Y human neuroblastoma cells; test: Protection against hydrogen peroxide-induced cell death (LDH); format: cell-based; conditions: compound 1 h before H2O2 100 μM during 24 h
Procedure: The aim of this assay is to determine the neuroprotective effect of the compounds of formula (I), when human neuroblastoma cells are exposed to oxidative stress induced by hydrogen peroxide, which is highly deleterious to the cell and its accumulation causes oxidation of cellular targets such as DNA, proteins, and lipids leading to mutagenesis and cell death.
SH-SY5Y human neuroblastoma cells are seeded into 96-well culture plate at a density of 10^4 cells/well. Cells are exposed to different concentrations of the compound one hour before the treatment with H2O2 100 μM during 24 h. 5 mM N-acetylcysteine (NAC), a known anti-oxidant agent was used as a positive control, and preincubated 1 hour before the treatment with H2O2. After 24 h, the medium is removed and cells attached to the bottom of the well are lysed by adding 50 μl of Triton X-100 1% in Krebs-Hepes during 5 minutes at room temperature. For LDH release quantification, Roche cytotoxicity detection kit (Cat. No. 11 644 793 001) was used.

[3] = system: SH-SY5Y human neuroblastoma cells; test: Protection against 6-OHDA-induced cell death (LDH); format: cell-based; conditions: preincubated 2 hours before 6-OHDA 75 μM during 16 hours, 10% Foetal bovine serum
Text: The aim of this experiment is to determine the protective effect of the compounds of formula (I) against the toxicity caused by 6-OHDA. This toxin induces a cell death similar to which occurs in Parkinson's disease, destroying dopaminergic neurons (“MPTP and 6-hydroxydopamine-induced neurodegeneration as models for Parkinson's disease: neuroprotective strategies”; Grunblatt E, et al.; J Neurol. 2000 April; 247 Suppl 2:II95-102).
Two or three days before the experiment, the SH-SY5Y human neuroblastoma cells are seeded into 96-well culture plate at a density of 10^4 cells/well. Cells are exposed to the treatment with 6-OHDA and, finally, cell death is measured by LDH quantification. As positive control we used NAC.
NAC and the compound of formula (I) are preincubated during 2 hours before the treatment with 6-OHDA 75 μM during 16 hours. The assay is performed in medium containing 10% Foetal bovine serum.
For each compound the minimum concentration of compound of formula (I) at which a neuroprotective effect is shown.

[4] = system: SH-SY5Y cells; test: Neuroprotection against Aβ25-35 toxicity (LDH); format: cell-based, human; conditions: pre-treated 1 hour, then 24 hours 200 μM Aβ25-35
Procedure: In order to evaluate potential neuroprotection of compounds, SH-SY5Y cells, cultured in 96-well plates, were pre-treated for 1 hour with the compound at different concentrations and then exposed 24 hours to 200 μM Aβ25-35 (Neosystem) to induce extensive oxidative stress and cell death. The ability of the compound of protecting against this toxicity is then evaluated by measuring intracellular LDH, using the colorimetric LDH assay.
It is widely accepted that the neurotoxic activity of Aβ resides within amino acids 25-35 (see e.g. Yankner B A et al., (1990) Neurotrophic and neurotoxic effects of amyloid β protein: reversal by tachykinin neuropeptides; Science 250:279-282).

[5] = system: SH-SY5Y human neuroblastoma cells; test: Toxicity: cell viability by LDH activity release; format: cell-based; conditions: 24 h
Procedure: The potential effects on cell viability of the tested compounds were assessed in SH-SY5Y human neuroblastoma cells, by quantification of Lactate dehydrogenase (LDH) activity release. SH-SY5Y human neuroblastoma cells were seeded into 96-well culture plates at 10^4 cells/well. The medium was then removed and the cells incubated with different concentrations of the compounds during 24 h. […] After 24 h, the medium was removed and cells attached to the bottom of the well were lysed by adding 50 μl of Krebs-Hepes; Triton X-100 1% during 5 minutes at room temperature. For LDH release quantification, the Roche cytotoxicity detection kit (Cat. No. 11 644 793 001) was used. The LDH activity was measured by its absorbance at 492 nm with reference wavelength 620 nm.
In Table 2, for each compound the maximum concentration at which cell viability was tested is indicated in the second column. In the third column, it is indicated whether at this maximum concentration the compound affected or not cell viability (>20% of cell death).

[6] = maximum concentration tested 100 μM
[7] = maximum concentration tested 1000 μM

| SMILES | inhibition Aβ secretion (minimum concentration at which the compound inhibits beta-amyloid secretion) [1] | Protect H2O2 (minimum concentration for which protection against H2O2 was determined) [2] | Protection 6-OHDA (minimum concentration at which a neuroprotective effect is shown) [3] | Protection β-Amiloyd (minimum concentration showing neuroprotection against Aβ25-35 toxicity) [4] | Yes/No: compound affected cell viability at maximum concentration tested [5, 6] | Yes/No: compound affected cell viability at maximum concentration tested [5, 7] |
| --- | --- | --- | --- | --- | --- | --- |
| COc1cc2c(SC)cc(/C=N/O)nc2c2ncccc12 [E, 6-methoxy-4-methylsulfanyl-[1,10]phenanthroline-2-carbaldehyde oxyme] | 10 µM | 0.05 µM | 0.5 µM | 10 µM | Y (affected or not cell viability (>20% of cell death)) |  |
| COc1cc2c(=O)cc(/C=N/O)[nH]c2c2ncccc12 [F, 6-methoxy-4-oxo-1,4-dihydro-[1,10]phenanthroline-2-carbaldehyde oxime] |  |  | 10 µM |  |  | N (affected or not cell viability (>20% of cell death)) |
| COCCOc1cc2cccnc2c2nc(/C=N/O)cc(OC)c12 [C, 4-methoxy-5-(2-methoxy-ethoxy)-[1,10]-phenanthroline-2-carbaldehyde oxime] | 0.1 µM | 0.005 µM | 0.5 µM | 5 µM |  | N (affected or not cell viability (>20% of cell death)) |
| COc1cc2cccnc2c2nc(/C=N/O)cc(SC)c12 [A, 5-methoxy-4-methylsulfanyl-[1,10]-phenanthroline-2-carbaldehyde oxime] | 0.1 µM | 0.05 µM | 0.05 µM | 5 µM | Y (affected or not cell viability (>20% of cell death)) |  |
| CSc1cc(/C=N/O)nc2c1c(C)cc1cccnc12 [D, 5-methyl-4-methylsulfanyl-[1,10]phenanthroline-2-carbaldehyde oxime] | 1 µM | 0.5 µM | 0.05 µM | 0.5 µM |  | N (affected or not cell viability (>20% of cell death)) |
| COc1cc(/C=N/O)nc2c1c(F)cc1cccnc12 [B, 5-fluoro-4-methoxy-[1,10]-phenanthroline-2-carbaldehyde oxime] | 1 µM | 0.05 µM | 0.05 µM | 5 µM |  | N (affected or not cell viability (>20% of cell death)) |
